Assay results from US6004972A, “Therapeutic process for the treatment of the pathologies of type II diabetes” (The Board of Supervisiors of Louisiana State University and …, priority 1998, dated 1999).
“And” between values parts separate entries of the source, which are not always exact repeats. Equal values may be shown once.

Columns and labels:
Type II diabetes [1] = assay: Oral bromocriptine in a diabetic (Example 4); type: in vivo, human; settings: parlodel 2.5 mg/day orally, 2.5 months
Protocol: A person weighing nearly 300 pounds was known to be a diabetic but had resisted all previous admonitions for treatment. […] Body weight has dropped 22 pounds and plasma glucose levels decreased to 160 mg/dl.

adult female pigs = assay: Effects of bromocriptine implants on fat stores and plasma triglyceride, glucose and insulin in pigs; type: in vivo, pig (swine)
Protocol: (§1) Adult female pigs, six in number, were given bromocryptine implants (10 mg/pig/day) lasting over a period of time while the pigs were subjected to daily periods of daylight and darkness (12:12). […] A control group of six pigs were similarly treated to periods of daylight and darkness except that no bromocryptine was administered to the pigs of the control group. The period of darkness was from 1800 to 0600, and the period of daylight from 0600 to 1800. Daily tests were made of the blood of the pigs at four hour intervals over a 14 day period to determine the plasma cortisol level (μg/dl) and plasma prolactin level […] of both groups. The average for each series of tests made on each group are given as follows:
Notes: Backfat thickness was used as an index in determining fat stores.
Plasma was sampled at 1600, 2000 and 2400 after two weeks of treatment. Each pig of the treatment group and control group was sampled.

[2] = system: noninsulin dependent (Type II) diabetes; assay: Timed oral bromocriptine in fifteen persons with noninsulin dependent (Type II) diabetes (Example 5); type: in vivo, human; settings: for Body Fat Loss / Plasma Glucose (% initial) / Skinfold Measurements (% initial): p < 0.05
Protocol: The participants were carefully instructed not to alter their daily activity or eating habits during the course of treatment.
Skinfold thickness was measured on the left side of the body by a trained anthropometrist in four regions: biceps, triceps, subscapular, and suprailiac, following the recommendations of the International Biological Program. Because of its frequent use, percent body fat was estimated from the common logarithm of the sum of the four skinfolds, using the equations of Durnin and Rahman and of Siri. […] Skinfold measurements were taken initially and at weekly intervals by the same individual. Blood pressure was also determined at these times. Morning fasting plasma glucose in the diabetic group was determined initially and after 4-8 weeks.

[3] = system: circadian rhythms of plasma cortisol and prolactin in adult female pigs; assay: Circadian plasma cortisol and prolactin levels in pigs given bromocriptine implants; type: in vivo, pig (swine); settings: for Plasma Cortisol Level: implant 10 mg/pig/day
Protocol: as §1, with “follows: […]” for “follows:”

symptoms of diabetes = assay: Oral bromocriptine in a diabetic (Example 2); type: in vivo, human; settings: 1.25-2.50 mg/day orally just after awakening
Protocol: At the beginning of the treatment, blood glucose concentration was shown by routine testing to be near 250 mg/dl. […] Fasting levels below 120 mg/dl are considered normal.

Type II diabetes [4] = assay: Oral bromocriptine in a person treated with diabenase (Example 3); type: in vivo, human
Protocol: A person was being treated with a hypoglycemic agent (diabenase) which had reduced the blood glucose of the patient from 250 mg/dl to about 180 mg/dl during one year of treatment. […] Removal of the hypoglycemic agent allowed glucose levels to rise and remain near 100 mg/dl (a normal level) in the succeeding two months.

body fat stores = settings: injections at different times of day; cited from earlier work
[5] = subjects on hypoglycemic drugs (8), 4-8 weeks
[6] = subjects receiving insulin (7), 4-8 weeks
[7] = parlodel 1.25-2.5 mg/day orally

CC(C)C[C@H]1C(=O)N2CCC[C@H]2[C@]2(O)O[C@](NC(=O)[C@@H]3C=C4c5cccc6[nH]c(Br)c(c56)C[C@H]4N(C)C3)(C(C)C)C(=O)N12 [bromocriptine, 2-bromo-alpha-ergocryptine]
plasma glucose level (Type II diabetes [1]; initial near 350 mg/dl): 160 mg/dL | drop in body weight (Type II diabetes [1]; two to three hours after awakening, initial nearly 300 pounds): 22 pounds | Backfat (adult female pigs; 10 mg/day/pig implant, 28 days after treatment): 86 % control | Triglyceride (plasma) (adult female pigs; 10 mg/day/pig implant, two weeks, sampled 1600, 2000 and 2400, control 52 ± 8): 27 ± 3 mg/dL | Glucose (plasma) (adult female pigs; 10 mg/day/pig implant, two weeks, sampled 1600, 2000 and 2400, control 99 ± 5): 86 ± 3 mg/dL | reduction in plasma insulin concentration (adult female pigs; implant): not statistically significant | reduction of body fat stores (adult female pigs; implant, 28 day period of treatment): 14% | reduction of plasma glucose levels (adult female pigs; implant, early period of darkness (2000-2400)): 13% | reduction of plasma triglyceride concentration (adult female pigs; implant, near sunset): 48% | transient anorexic effects ([2]; 1.25 mg for 2-3 days then 2.5 mg daily, oral): did not occur | mild nausea, participants ([2]; 1.25 mg for 2-3 days then 2.5 mg daily, oral, transient, first few days): < 10% | reductions in body fat ([2]; after 6 weeks without food restriction): 4.4 % of the body weight | blood glucose concentrations and skinfold measurements ([2]; all subjects, 4-8 weeks): reduced in every diabetic subject | doses of hypoglycemic drugs and insulin ([2]; during bromocriptine treatment): reduced in three other subjects | oral hypoglycemic medication discontinued ([2]; during bromocriptine treatment): completely discontinued during bromocriptine treatment in three individuals | fat loss, average ([2]; present study): 1.4 pounds per week | Body Fat, final ([2]; subjects on hypoglycemic drugs (8), 4-8 weeks, initial 36.5 ± 2.3, p < 0.05): 32.9 ± 2.0 % Body Weight | Plasma Glucose, final (fasting) ([2]; subjects on hypoglycemic drugs (8), 4-8 weeks, initial 231 ± 19, p < 0.05): 166 ± 19 mg/dL | Total Body Weight, final ([2]; subjects on hypoglycemic drugs (8), 4-8 weeks, initial 255 ± 21): 253 ± 20 pounds | Loss of Body Weight ([2]; subjects on hypoglycemic drugs (8), 4-8 weeks, not statistically significant): -2.4 ± 2.0 pounds | Body Fat Loss [2, 5]: -10.0 ± 2.2 pounds | Plasma Glucose (% initial) [2, 5]: 72 ± 6 % initial | Skinfold Measurements (% initial) [2, 5]: 79 % initial | Loss of Body Weight [2, 6]: -0.4 ± 2.0 pounds | Body Fat, final ([2]; subjects receiving insulin (7), 4-8 weeks, initial 33.4 ± 2.2, p < 0.05): 31.7 ± 1.7 % Body Weight | Body Fat Loss [2, 6]: -3.1 ± 0.9 pounds | Plasma Glucose (% initial) [2, 6]: 65 ± 8 % initial | Skinfold Measurements (% initial) [2, 6]: 84 % initial | mean loss of body fat ([2]; subjects taking hypoglycemic drugs, 4-8 weeks): 10 pounds | mean reduction in skinfold measurements ([2]; subjects taking hypoglycemic drugs, four regions, 4-8 weeks): 21% | reduction of body weight ([2]; subjects taking hypoglycemic drugs, not statistically significant): 2.4 pounds per subject | decline in total body fat ([2]; subjects taking hypoglycemic drugs, within 4 to 8 weeks): 10.7% | reduction in % body fat ([2]; subjects taking insulin): 5.1 | reduction in body fat ([2]; subjects taking insulin): 3.1 pounds | reduction in skinfold ([2]; subjects taking insulin): 16% | reduction of body weight ([2]; subjects taking insulin): not at all reduced | blood glucose levels after termination of bromocriptine ([2]; three individuals off oral hypoglycemic medication, at least two months after bromocriptine terminated): < 120 mg/dL | phase relationships of the circadian rhythms of plasma corticosteroid and prolactin concentrations ([3]; implant): altered the phase relationships | Plasma Cortisol Level ([3]; LD 12:12, time 0400, control 5.5): 3.2 µg/dL | Plasma Cortisol Level ([3]; LD 12:12, time 0800, control 4.8): 1.9 µg/dL | Plasma Cortisol Level ([3]; LD 12:12, time 1200, control 3.4): 1.5 µg/dL | Plasma Cortisol Level ([3]; LD 12:12, time 1600, control 1.6): 3.2 µg/dL | Plasma Cortisol Level ([3]; LD 12:12, time 2000, control 1.9): 2.8 µg/dL | Plasma Cortisol Level ([3]; LD 12:12, time 2400, control 2.7): 3.5 µg/dL | reduction of body weight (symptoms of diabetes): about 12% | reduction of indices of body fat (symptoms of diabetes): about 12% | blood glucose concentration (symptoms of diabetes; successive levels in following weeks, initial near 250 mg/dl): 180 mg/dL and 155 mg/dL and 135 mg/dL and 97 mg/dL and 101 mg/dL | blood glucose level (Type II diabetes [4]; after removal of hypoglycemic agent, succeeding two months): ~100 mg/dL | reduction of body fat (Type II diabetes [4]; [7]): about 10% | reduction of body weight (Type II diabetes [4]; [7]): about 10% | blood glucose level (Type II diabetes [4]; parlodel 1.25-2.5 mg/day orally, about an hour after awakening, with diabenase, 2 weeks, from about 180 mg/dl): 80 mg/dL

CCCNC(=O)NS(=O)(=O)c1ccc(Cl)cc1 [diabenase]
blood glucose level (Type II diabetes [4]; diabenase alone, one year of treatment, from 250 mg/dl): about 180 mg/dl

B1: Prolactin: a hormone secreted by the pituitary (protein, UniProt P01236 29-227, looked up)
Prolactin: LPICPGGAARCQVTLRDLFDRAVVLSHYIHNLSSEMFSEFDKRYTHGRGFITKAINSCHTSSLATPEDKEQAQQMNQKDFLSLIVSILRSWNEPLYHLVTEVRGMQEAPEAILSKAVEIEEQTKRLLEGMELIVSQVHPETKENEIYPVWSGLPSLQMADEESRLSAYYNLLHCLRRDSHKIDNYLKLLKCRIIHNNNC
stimulation of fattening (body fat stores): stimulate fattening only when injected at certain times of the day
